Experiments:
[1] = test system: blood-brain barrier (BBB) permeability; assay: Example 3: brain Amphotericin B concentration in rats given mifepristone or placebo; format: in vivo, rat; settings: mifepristone 200 mg 10-day sustained release pellet; Amphotericin B 0.1 mg i.v.
Description: Animal sacrifice is by decapitation during the first four hours of the light cycle. Blood is collected and brains removed and frozen on dry ice for storage at −80° C. Amphotericin B concentration is measured in the brains of the experimental animals.

[2] = test system: blood-brain barrier (BBB) permeability; assay: Example 6: brain adriamycin concentration in rats given mifepristone or placebo; format: in vivo, rat; settings: mifepristone 2 mg s.c. four hours prior to sacrifice; adriamycin 0.5 mg i.v.
Description: Animal sacrifice is by decapitation during the first four hours of the light cycle. Blood is collected and brains removed and frozen on dry ice for storage at −80° C. Adriamycin concentration is measured in the brains of the experimental animals.

[3] = test system: blood-brain barrier (BBB) permeability; assay: Example 5: brain methotrexate concentration in rats given mifepristone or placebo; format: in vivo, rat; settings: mifepristone 200 mg 10 day sustained-release pellet; methotrexate 0.5 mg i.v.
Description: Animal sacrifice is by decapitation during the first four hours of the light cycle. Blood is collected and brains removed and-frozen on dry ice for storage at −80° C. Methotrexate concentration is measured in the brains of the experimental animals.

[4] = test system: blood-brain barrier (BBB) permeability; assay: Example 2: brain haloperidol and clozapine levels in rats given mifepristone or placebo pellet; format: in vivo, rat; settings: mifepristone 200 mg 10-day sustained-release pellet
Description: Animal sacrifice is by decapitation during the first four hours of the light cycle. Blood is collected and brains removed and frozen on dry ice for storage at −80° C.

[5] = test system: blood-brain barrier (BBB) permeability; assay: Example 4: brain ampicillin concentration in rats given mifepristone or placebo; format: in vivo, rat; settings: mifepristone 200 mg 10-day sustained release pellet; ampicillin 1.5 mg i.v.
Description: Animal sacrifice is by decapitation during the first four hours of the light cycle. Blood is collected and brains removed and frozen on dry ice for storage at −80° C. Ampicillin concentration is measured in the brains of the experimental animals.

[6] = test system: dopamine metabolites HVA and DOPAC in the brain; assay: Example 2: brain dopamine metabolites (HVA, DOPAC) in rats given mifepristone or placebo pellet; format: in vivo, rat; settings: mifepristone 200 mg 10-day sustained-release pellet
Description: Rats (male Sprague Dawley 175-200 grams) are maintained, 3 rats per cage, under controlled temperature and lighting (12 hours light/12 hours dark) with food and water ad libitum. […] Two hours prior to sacrifice the animals are injected with either haloperidol (1 mg/kg s.c; […] RBI, Natick, Mass.) or vehicle (0.9% saline plus 0.8% acetic acid). Animal sacrifice is by decapitation during the first four hours of the light cycle. Blood is collected and brains removed and frozen on dry ice for storage at −80° C. Frozen brains are sliced into 250 μm sections with a cryostat. The medial prefrontal cortex (AP 13.7 to 12.2 mm) is dissected with a scalpel, the striatum (AP 10.7 to 9.7 mm) is removed with stainless steel cannulae from frozen slices and the core and shell of the nucleus accumbens (AP 10.7 to 9.7 mm) is removed. Brain regions are dissected within 24-72 hours of slicing. […] Dopamine metabolites homovanillic acid (HVA) and dihydroxyphenylacetic acid (DOPAC) are measured in the brains of the experimental animals. […] DOPAC and HVA were detected using an electrochemical detector. […] Brain clozapine levels are analyzed by National Medical Services, Inc. (Willow Grove, PN) while brain and plasma haloperidol and reduced haloperidol and plasma clozapine levels are analyzed by Analytical Psychopharmacology Laboratories (Nathan Kline Institute, Orangeburg, N.Y.), both by gas chromotography.

[7] = test system: dopamine metabolites HVA and DOPAC in the brain; assay: Example 1: brain dopamine metabolites (HVA, DOPAC) in adrenalectomized rats with corticosterone or placebo pellets; format: in vivo, rat; settings: vehicle (placebo) pellet animals; haloperidol 1 mg/kg s.c. or clozapine 15 mg/kg s.c. two hours prior to sacrifice
Description: The implanted pellets contained either 100 mg corticosterone (for haloperidol experiments), 50 mg corticosterone (for clozapine experiments) or placebo. Two hours prior to sacrifice the animals were injected with either haloperidol (1 mg/kg s.c; RBI Natick, Mass.) or an equivalent volume of vehicle (0.3% tartaric acid, pH 5.3) or with either clozapine (15 mg/kg s.c.; RBI, Natick, Mass.) or vehicle (0.9% saline plus 0.8% acetic acid).
Animals were sacrificed by decapitation during the first four hours of the light cycle, blood collected and brains removed and frozen on dry ice and stored at −80° C. Corticosterone was measured in plasma by radioimmunoassay (ICN Biochem, Costa Mesa, Calif.) to confirm adrenalectomy and corticosterone replacement. […] Brain regions were dissected within 24-72 hours of slicing. Tissue was placed in 0.1 M perchloric acid with 0.1 mM EDTA and stored for no longer than 2 weeks at −80° C.
Dopamine metabolites homovanillic acid (HVA) and dihydroxyphenylacetic acid (DOPAC) were measured in the brains of the experimental animals. Samples were thawed, homogenized by sonication in 0.1 M perchloric acid/0.1 mM EDTA, and centrifuged for 2 minutes. Tissue pellets were dissolved in 1.0 N NaOH for protein determination (Bio-Rad, Richmond, Calif.). […] DOPAC and HVA were detected using an electrochemical detector. […]

[8] = in vivo; cited from earlier work
[9] = test system: sensitive bacterial strains; settings: cited from earlier work

## CC#C[C@]1(O)CC[C@H]2[C@@H]3CCC4=CC(=O)CCC4=C3[C@@H](c3ccc(N(C)C)cc3)C[C@@]21C [mifepristone, (11,17)-11-[4-(dimethylmino)phenyl]-17-hydroxy-17-(1-propynyl)estra-4,9-dien-3-one]
[1]
  brain Amphotericin B concentration, mifepristone-treated vs placebo: greater
[2]
  brain adriamycin concentration, mifepristone-treated vs placebo: greater
[3]
  brain methotrexate concentration, mifepristone-treated vs placebo: greater
[4]; clozapine 15 mg/kg s.c.
  brain concentration of clozapine, mifepristone-treated vs placebo: greater
[4]; haloperidol 1 mg/kg s.c.
  brain concentration of haloperidol, mifepristone-treated vs placebo: greater
[5]
  brain ampicillin concentration, mifepristone-treated vs placebo: greater
[6]; clozapine 15 mg/kg s.c.
  increase in brain dopamine metabolite levels following clozapine, mifepristone-treated vs placebo: greater
[6]; haloperidol 1 mg/kg s.c.
  increase in brain dopamine metabolite levels following haloperidol, mifepristone-treated vs placebo: greater

## O=C(CCCN1CCC(O)(c2ccc(Cl)cc2)CC1)c1ccc(F)cc1 [haloperidol]
[7]
  levels of HVA and DOPAC in the brain: elevated

## Nc1nc2c(ncn2COCCO)c(=O)[nH]1 [Acyclovir, acyclovir]
[8]
  concentrations achieved in the CNS as share of those achieved in plasma: 30-50%

## O=C(N[C@H](CO)[C@H](O)c1ccc([N+](=O)[O-])cc1)C(Cl)Cl [Chloramphenicol, chloramphenicol]
[9]
  concentration effective against sensitive bacterial strains: ≤ 8 µg/mL

From patent publication US20050124533A1, “Glucocorticoid blocking agents for increasing blood-brain barrier permeability stan-261con” (priority 2002, published 2005)
